From PMC12530842, “Potent, Selective, and Drug‐Like G Protein‐Coupled Receptor Kinase 5 and 6 Inhibitors: Design, Synthesis, and X‐Ray Structural Studies” (Chemmedchem, 2025)

Legend:
Assay type in all cases: biochemical
[1] = target: T1, GRK5 (Homo sapiens, UniProt P34947); experiment: GRK5 kinase inhibition assay, phosphorylation of tubulin ([γ-32P]-ATP); conditions: for Selectivity GRK2/GRK5: fold selectivity for GRK5 over GRK2; for IC50: phosphorylation of the soluble substrate tubulin, ± standard deviation from 3 to 4 independent experiments; for selectivity over GRK2: GRK5 vs GRK2, as stated in text
T1 construct: Human GR K5 (residues 1- 590) w ild- type and D 311N mutant w ere expressed in E. co li Rosetta; His tag (inferred from nickel-NTA purification); made in house; host or cells: E. coli Rosetta (DE3)
T1 sequence (P34947 whole entry, the tested form may be a part): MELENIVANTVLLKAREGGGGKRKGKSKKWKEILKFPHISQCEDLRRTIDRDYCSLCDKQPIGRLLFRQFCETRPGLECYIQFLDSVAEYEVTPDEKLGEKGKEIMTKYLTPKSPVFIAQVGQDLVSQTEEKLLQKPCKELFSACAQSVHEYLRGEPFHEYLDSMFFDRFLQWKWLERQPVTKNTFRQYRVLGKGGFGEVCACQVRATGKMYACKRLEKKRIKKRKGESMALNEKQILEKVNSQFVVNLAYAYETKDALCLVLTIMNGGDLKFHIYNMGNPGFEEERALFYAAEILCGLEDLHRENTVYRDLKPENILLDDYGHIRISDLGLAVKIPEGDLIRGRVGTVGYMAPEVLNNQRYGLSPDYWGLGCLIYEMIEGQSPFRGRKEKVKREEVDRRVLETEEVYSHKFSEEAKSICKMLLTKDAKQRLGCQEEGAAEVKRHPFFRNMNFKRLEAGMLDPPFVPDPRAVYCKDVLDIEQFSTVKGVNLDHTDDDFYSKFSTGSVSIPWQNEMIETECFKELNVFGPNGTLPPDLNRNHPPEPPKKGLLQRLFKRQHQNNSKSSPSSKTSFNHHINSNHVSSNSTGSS
Protocol: (§1) The inhibitory potency of synthetic compounds containing the N‐heterocyclic amide functionalities was evaluated against human GRK2, GRK5 and GRK6 using our in vitro assays‐, as reported previously.^[ [35], [37] ^] […] We then investigated the effect of (R)‐ and (S)‐Boc pyrrolidine carboxamide derivatives. […] These improvements of GRK5 IC50 values over their Boc‐derivatives (6c and 6d) indicated the bulky Boc group may not be able to fit as well in the catalytic site of these GRKs. On the other hand, sterically less demanding acetamide derivatives 6e and 6f were well accommodated consistent with their very good activity against GRK5, GRK6, and GRK2, but only with marginal selectivity against GRK2. […] We also examined the effect of 3(S)‐ and 3(R)‐Boc‐pyrrolidine derivatives.
(§2) Protein expression and purification.
(§3) Human GR K5 (residues 1- 590) w ild- type and D 311N mutant w ere expressed in E. co li Rosetta (D E3) and purified v ia nickel-nitrilotriacetic acid affinity chromatography, followed by tandem columns consisting of a HiTrap Q HP anion exchange chromatography column and a HiTrap SP HP cation exchange chromatography column, and finished by Superdex 200 Increase size -exclusion chromatography, as described previously. Human GRK6 (with T10A and mutations that eliminate palmitoylation sites) was expressed in Sf9 insect cells [ 2] and was purified w ith the same protocol for GR K5 [1]. Human GRK2 w as purified as described previously.
(§4) Kinase inhibition Assays.
(§5) Inhibit ion assays were conducted in a reaction mixture containing 20 mM H EPES pH 7. 0, 2 mM MgC l2, and 0.025% n- dodecyl-β-D-maltoside. Prior to reaction initiation, GR K5 or GR K6 at 50 nM was mixed w ith porcine brain tubulin ( PurSolutions) at a concentration of 500 nM. The assay w as started w ith a 30- second incubation of inhibitors, followed by the add it ion of 5 μ M ATP supplemented w ith radioactive [γ-32P]-AT P a t 60 C i/m mol (PerkinElm er Life Sciences). Re actions pro ceeded for 5 m inut es at ro o m te mpera ture a nd were terminated by adding 4X SDS loading buffer. T he reaction mixtures were then s eparated via SDS - PAG E, dried, and exposed using a phosphor imaging screen. Quantification was performed using a Personal Molecular Imager and Quantity One 1- D Analysis Software. Analogous inhibition assays were conducted on p urified GR K2 wit h a t ub ulin conce ntrat ion of 1 μ M. Data ana lysis was perf orme d usin g Graph Pa d Pr ism, and IC50 values wer e calculated based on three- parameter dose- dependent curves (with a Hill coefficient fixed at 1) plotting phosphate transfer against inhibitor concentration. At least three replicates were conducted to determine the mean and standard deviation of IC50 values as published previously . […]
(§6) (6) The final models w ere validated with MolProbity prior to depos ition along with structure factors in the Protein Data Bank. Atomic figures were created with Py mol (7). Cr ystallographic statistics are reported in Supplemental Table 1. Coordinates for inh ib itor 6t (GRL-098- 22) w ere deposited in the Protein Data Bank, with accession code 9BR K.
(§7) 1. Y. Chen, A. Sonawane, R. Manda, R. K. G adi, J. J. G. Tesmer, A. K. Ghosh. Development of a new class of potent and highly select ive G protein- coupled r eceptor kinase 5 inhibitors and structural insight from crystal structures of inhibitor complexes. Eur. J. Med. Chem. 2024, 264, 115931.
(§8) 2. D. T. Lodowski, V. M. T esmer, J. L. Benovic, J. J. Tesmer. The structure of G protein- coupled receptor kinase (GRK)-6 defines a second lineage of GRKs. J. Bio l. C he m. 2006, 281,16785- 16793.

[2] = target: T2, GRK2 (Homo sapiens, UniProt P25098); experiment: GRK2 kinase inhibition assay, phosphorylation of tubulin ([γ-32P]-ATP); conditions: for IC50: phosphorylation of the soluble substrate tubulin, ± standard deviation from 3 to 4 independent experiments
T2 construct: made in house
T2 sequence (P25098 1-689): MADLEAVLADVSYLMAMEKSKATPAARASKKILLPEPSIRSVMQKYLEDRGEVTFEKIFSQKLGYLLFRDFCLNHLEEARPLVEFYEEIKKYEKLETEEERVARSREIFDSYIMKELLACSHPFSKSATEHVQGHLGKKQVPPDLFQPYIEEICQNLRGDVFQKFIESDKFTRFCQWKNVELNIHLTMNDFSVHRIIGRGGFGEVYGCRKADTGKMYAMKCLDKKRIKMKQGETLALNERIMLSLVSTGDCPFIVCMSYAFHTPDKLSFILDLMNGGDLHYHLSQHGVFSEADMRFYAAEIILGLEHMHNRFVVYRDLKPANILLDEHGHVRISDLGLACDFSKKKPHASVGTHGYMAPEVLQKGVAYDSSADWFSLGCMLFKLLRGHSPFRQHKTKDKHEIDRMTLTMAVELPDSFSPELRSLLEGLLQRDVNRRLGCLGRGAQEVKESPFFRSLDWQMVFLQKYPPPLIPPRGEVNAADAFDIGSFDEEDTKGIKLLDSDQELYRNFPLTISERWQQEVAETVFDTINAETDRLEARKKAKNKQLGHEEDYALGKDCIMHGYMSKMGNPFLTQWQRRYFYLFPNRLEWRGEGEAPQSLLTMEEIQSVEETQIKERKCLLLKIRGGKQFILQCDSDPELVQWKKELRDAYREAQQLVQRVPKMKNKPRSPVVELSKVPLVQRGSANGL
Protocol: as §1, §2, §3, §4, §5, §6, §7, §8

[3] = target: T3, GRK6 (Homo sapiens, UniProt P43250, C561S/C562S/C565S/T10A); experiment: GRK6 kinase inhibition assay, phosphorylation of tubulin ([γ-32P]-ATP); conditions: for Selectivity GRK5/GRK6: fold selectivity for GRK6 over GRK5; for IC50: phosphorylation of the soluble substrate tubulin, ± standard deviation from 3 to 4 independent experiments
T3 construct: His tag (inferred: purified by the GRK5 protocol, which starts with nickel-NTA); made in house; host or cells: Sf9 insect cells
T3 sequence (P43250 whole entry T10A/C561S/C562S/C565S): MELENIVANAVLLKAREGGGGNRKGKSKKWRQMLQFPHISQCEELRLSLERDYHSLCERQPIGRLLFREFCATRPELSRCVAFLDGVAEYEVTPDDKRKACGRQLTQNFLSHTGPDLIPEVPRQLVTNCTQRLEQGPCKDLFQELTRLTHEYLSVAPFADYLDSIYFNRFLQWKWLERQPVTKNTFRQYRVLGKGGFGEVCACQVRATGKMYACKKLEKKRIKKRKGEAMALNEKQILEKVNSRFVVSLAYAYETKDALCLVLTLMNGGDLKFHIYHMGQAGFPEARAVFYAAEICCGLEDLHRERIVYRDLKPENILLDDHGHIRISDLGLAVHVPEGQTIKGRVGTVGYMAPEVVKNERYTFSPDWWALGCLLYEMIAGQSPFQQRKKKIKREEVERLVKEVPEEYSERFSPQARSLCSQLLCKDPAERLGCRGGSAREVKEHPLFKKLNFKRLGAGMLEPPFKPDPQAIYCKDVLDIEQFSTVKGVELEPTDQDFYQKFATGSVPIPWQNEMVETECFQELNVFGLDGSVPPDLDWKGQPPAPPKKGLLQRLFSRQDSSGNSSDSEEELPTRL
Protocol: as §1, §2, §3, §4, §5, §6, §7, §8

Row | Selectivity GRK2/GRK5 [1] [fold] | IC50 [1] [nM] | IC50 [2] [nM] | Selectivity GRK5/GRK6 [3] [fold] | IC50 [3] [nM] | GRK5 IC50 (in words) [1] | activity against GRK2 (in words) [2] | GRK6 IC50 (in words) [3] | selectivity over GRK2 [1] | fold reduction of GRK5 activity ([1]; in comparison with compound 6a) [fold] | Compound
1 | 26 | 27 ± 6 | 710 ± 400 | 1 | 20 ± 10 | – | – | – | – | – | Cc1[nH]c(/C=C2\C(=O)Nc3ccc(C(=O)N[C@H](C)c4ccc(F)cc4)cc32)c(C)c1NC(=O)[C@@H]1CCC(=O)N1 [6a, (Z)‐3‐((3,5‐Dimethyl‐4‐((S)‐5‐Oxopyrrolidine‐2‐Carboxamido)‐1H‐Pyrrol‐2‐Yl)Methylene)‐N‐((R)‐1‐(4‐Fluorophenyl)Ethyl)‐2‐Oxoindoline‐5‐Carboxamide]
2 | 140 | 2100 ± 900 | 300000 ± 100000 | 1 | 1400 ± 200 | low micromolar range | little to no activity | low micromolar range | – | – | Cc1[nH]c(/C=C2\C(=O)Nc3ccc(C(=O)N[C@H](C)c4ccc(F)cc4)cc32)c(C)c1NC(=O)[C@@H]1CCN(C(=O)OC(C)(C)C)C1 [6k, Tert‐Butyl(R)‐3‐((5‐(((Z)‐5‐(((R)‐1‐(4‐Fluorophenyl)Ethyl)Carbamoyl)‐2‐Oxoindolin‐3‐Ylidene)Methyl)‐2,4‐Dimethyl‐1H‐Pyrrol‐3‐Yl)Carbamoyl)Pyrrolidine‐1‐Carboxylate]
3 | 1500 | 410 ± 100 | 610000 ± 450000 | 1 | 340 ± 300 | – | – | – | over 1500 fold | – | Cc1[nH]c(/C=C2\C(=O)Nc3ccc(C(=O)N[C@H](C)c4ccc(F)cc4)cc32)c(C)c1NC(=O)[C@@H]1CCCN(C(=O)OC(C)(C)C)C1 [6p, Tert‐Butyl(R)‐3‐((5‐(((Z)‐5‐(((R)‐1‐(4‐Fluorophenyl)Ethyl)Carbamoyl)‐2‐Oxoindolin‐3‐Ylidene)Methyl)‐2,4‐Dimethyl‐1H‐Pyrrol‐3‐Yl)Carbamoyl)Piperidine‐1‐Carboxylate]
4 | >3 | 50000 ± 30000 | 160000 ± 100000 | 35 | 1400 ± 500 | – | – | – | – | – | Cc1[nH]c(/C=C2\C(=O)Nc3ccc(C(=O)N[C@H](C)c4ccc(F)cc4)cc32)c(C)c1NC(=O)[C@H]1CCCN1C(=O)OC(C)(C)C [6c, Tert‐Butyl(R)‐2‐((5‐(((Z)‐5‐(((R)‐1‐(4‐Fluorophenyl)Ethyl)Carbamoyl)‐2‐Oxoindolin‐3‐Ylidene)Methyl)‐2,4‐Dimethyl‐1H‐Pyrrol‐3‐Yl)Carbamoyl)Pyrrolidine‐1‐Carboxylate]
5 | 3 | 33000 ± 6000 | 100000 ± 70000 | 37 | 900 ± 800 | – | – | – | – | – | Cc1[nH]c(/C=C2\C(=O)Nc3ccc(C(=O)N[C@H](C)c4ccc(F)cc4)cc32)c(C)c1NC(=O)[C@@H]1CCCCN1C(=O)OC(C)(C)C [6n, Tert‐Butyl(S)‐2‐((5‐(((Z)‐5‐(((R)‐1‐(4‐Fluorophenyl)Ethyl)Carbamoyl)‐2‐Oxoindolin‐3‐Ylidene)Methyl)‐2,4‐Dimethyl‐1H‐Pyrrol‐3‐Yl)Carbamoyl)Piperidine‐1‐Carboxylate]
6 | 2 | 500 ± 100 | 1200 ± 400 | – | 2500 ± 400 | – | – | – | – | – | Cc1[nH]c(/C=C2\C(=O)Nc3ccc(C(=O)N[C@H](C)c4ccc(F)cc4)cc32)c(C)c1NC(=O)[C@H]1CCCCN1C(=O)OC(C)(C)C [6m, Tert‐Butyl(R)‐2‐((5‐(((Z)‐5‐(((R)‐1‐(4‐Fluorophenyl)Ethyl)Carbamoyl)‐2‐Oxoindolin‐3‐Ylidene)Methyl)‐2,4‐Dimethyl‐1H‐Pyrrol‐3‐Yl)Carbamoyl)Piperidine‐1‐Carboxylate]
7 | 3 | 800 ± 400 | 2100 ± 200 | 30 | 28 ± 2 | – | – | – | – | 30 | Cc1[nH]c(/C=C2\C(=O)Nc3ccc(C(=O)N[C@H](C)c4ccc(F)cc4)cc32)c(C)c1NC(=O)[C@H]1CCC(=O)N1 [6b, (Z)‐3‐((3,5‐Dimethyl‐4‐((R)‐5‐Oxopyrrolidine‐2‐Carboxamido)‐1H‐Pyrrol‐2‐Yl)Methylene)‐N‐((R)‐1‐(4‐Fluorophenyl)Ethyl)‐2‐Oxoindoline‐5‐Carboxamide]
8 | 16 | 30 ± 4 | 480 ± 400 | 1 | 30 ± 10 | – | – | – | over 15 fold | – | Cc1[nH]c(/C=C2\C(=O)Nc3ccc(C(=O)N[C@H](C)c4ccc(F)cc4)cc32)c(C)c1NC(=O)[C@@H]1C=CCN1 [6j, (Z)‐3‐((4‐((S)‐2,5‐Dihydro‐1H‐Pyrrole‐2‐Carboxamido)‐3,5‐Dimethyl‐1H‐Pyrrol‐2‐Yl)Methylene)‐N‐((R)‐1‐(4‐Fluorophenyl)Ethyl)‐2‐Oxoindoline‐5‐Carboxamide]
9 | 3 | 40 ± 20 | 100 ± 10 | 1 | 30 ± 2 | – | – | – | – | – | Cc1[nH]c(/C=C2\C(=O)Nc3ccc(C(=O)N[C@H](C)c4ccc(F)cc4)cc32)c(C)c1NC(=O)[C@H]1CCCN1 [6g, (Z)‐3‐((3,5‐Dimethyl‐4‐((R)‐Pyrrolidine‐2‐Carboxamido)‐1H‐Pyrrol‐2‐yl)Methylene)‐N‐((R)‐1‐(4‐Fluorophenyl)Ethyl)‐2‐Oxoindoline‐5‐Carboxamide]
10 | 15 | 14 ± 1 | 210 ± 100 | – | 50 | – | – | – | – | – | Cc1[nH]c(/C=C2\C(=O)Nc3ccc(C(=O)N[C@H](C)c4ccc(F)cc4)cc32)c(C)c1NC(=O)[C@H]1CNCCN1 [6u, (Z)‐3‐((3,5‐Dimethyl‐4‐((R)‐Piperazine‐2‐Carboxamido)‐1 H‐Pyrrol‐2‐Yl)Methylene)‐N‐((R)‐1‐(4‐Fluorophenyl)Ethyl)‐2‐Oxoindoline‐5‐Carboxamide]
11 | 66 | 94 ± 10 | 6200 ± 3000 | 1 | 150 ± 60 | – | – | – | – | – | Cc1[nH]c(/C=C2\C(=O)Nc3ccc(C(=O)N[C@H](C)c4ccc(F)cc4)cc32)c(C)c1NC(=O)[C@H]1CCCN(C(=O)OC(C)(C)C)C1 [6o, Tert‐Butyl(S)‐3‐((5‐(((Z)‐5‐(((R)‐1‐(4‐Fluorophenyl)Ethyl)Carbamoyl)‐2‐Oxoindolin‐3‐Ylidene)Methyl)‐2,4‐Dimethyl‐1H‐Pyrrol‐3‐Yl)Carbamoyl)Piperidine‐1‐Carboxylate]
